Test results from patent publication US9655888B2, “Tricyclic alkene derivatives as HIV attachment inhibitors” (priority 2012, dated 2017).
Read-outs that look alike come from different tables or passages of the source.

Test system: HIV-1 LAI envelope single-round infectious reporter virus
Experiment: Single-round infectious HIV-1 LAI luciferase reporter virus infection of MT2 cells
Type: cell-based
Conditions: Human immunodeficiency virus 1, MT2, 72 h
Text: • Virus production—Human embryonic Kidney cell line, 293T (HEK 293T), was propagated in Dulbecco's Modified Eagle Medium (Invitrogen, Carlsbad, Calif.) containing 10% fetal bovine serum (FBS, Sigma, St. Louis, Mo.). The human T-cell leukemia cell MT2 (AIDS Research and Reference Reagent Program, Cat. 237) was propagated in RPMI 1640 (Invitrogen, Carlsbad, Calif.) containing 10% fetal bovine serum (FBS, Hyclone, Logan, Utah) • Virus infection—Single-round infectious reporter virus was produced by co-transfecting HEK 293T cells with plasmide expressing the HIV-1 LAI envelope along with a plasmid containing an HIV-1 LAI proviral cDNA with the envelope gene replaced by a firefly luciferase reporter gene (Chen et al., Ref 41). Transfections were performed using lipofectAMINE PLUS reagent as described by the manufacturer (Invitrogen, Carlsbad, Calif.). Experimental Procedure • 1. MT2 cells were plated in black, 384 well plates at a cell density of 5×10^3 cells per well in 25 μl RPMI 1640 containing 10% FBS. • 2. Compound (diluted in dimethylsulfoxide and growth medium) was added to cells at 12.5 μl/well, so that the final assay concentration would be ≦50 nM. • 3. 12.5 μl of single-round infectious reporter virus in Dulbecco's Modified Eagle Medium was added to the plated cells and compound at an approximate multiplicity of infection (MOI) of 0.01, resulting in a final volume of 50 μl per well. • 4. Virus-infected cells were incubated at 37 degrees Celsius in a CO2 incubator and harvested 72 h after infection. • 5. Viral infection was monitored by measuring luciferase expression in the infected cells using a luciferase reporter gene assay kit (Steady-Glo, Promega, Madison, Wis.) as described by the manufacturer. Luciferase activity was then quantified by measuring luminescence using an EnVision Multilabel Plate Readers (PerkinElmer, Waltham, Mass.). • 6. The percent inhibition for each compound was calculated by quantifying the level of luciferase expression in cells infected in the presence of each compound as a percentage of that observed for cells infected in the absence of compound and subtracting such a determined value from 100. • 7. An EC50 provides a method for comparing the antiviral potency of the compounds of the invention. The effective concentration for fifty percent inhibition (EC50) was calculated with the Microsoft Excel Xlfit curve fitting software. For each compound, curves were generated from percent inhibition calculated at 10 different concentrations by using a four parameter logistic model (model 205). Table 1 is the key for the data in Table 2.

[1] = read-out: EC50 Group from Table 1

Row | SMILES | EC50 [nM] | EC50 [1] [nM]
1 | COc1cnc(-n2cnc(C)n2)c2[nH]cc(C(=O)C(=O)N3CCC(=C4c5ccccc5CCc5ccccc54)CC3)c12 [Compound 1009] | 3.72 | < 500
2 | COc1cnc(Cl)c2[nH]cc(C(=O)C(=O)N3CCC(=C4c5ccc(Cl)cc5CCc5cccnc54)CC3)c12 [Compound 1002] |  | < 500
3 | COc1cnc(Cl)c2[nH]cc(C(=O)C(=O)N3CCC(=C4c5ccccc5CCc5ccccc54)CC3)c12 [Compound 1004] |  | < 500
4 | COc1cnc(-n2cncn2)c2[nH]cc(C(=O)C(=O)N3CCC(=C4c5ccccc5CCc5ccccc54)CC3)c12 [Compound 1005] |  | < 500
5 | COc1cnc(-n2cnc(C)n2)c2[nH]cc(C(=O)C(=O)N3CCC(=C4c5ccc(Cl)cc5CCc5cccnc54)CC3)c12 [Compound 1010] |  | < 500
6 | COc1cnc(-n2cnc(C)n2)c2[nH]cc(C(=O)C(=O)N3CCC(=C4c5ccccc5C=Cc5ccccc54)CC3)c12 [Compound 1001] | 0.28 | < 500
7 | O=C(C(=O)N1CCC(=C2c3ccc(Cl)cc3CCc3cccnc32)CC1)c1c[nH]c2c(Br)ccc(F)c12 [Compound 1008] |  | > 500
8 | COc1ccc(Br)c2[nH]cc(C(=O)C(=O)N3CCC(=C4c5ccccc5CCc5ccccc54)CC3)c12 [Compound 1006] | 95.3 | < 500
9 | O=C(C(=O)N1CCC(=C2c3ccccc3CCc3ccccc32)CC1)c1c[nH]c2ccccc12 [Compound 1003] | 692 | > 500
10 | O=C(C(=O)N1CCC(=C2c3ccccc3CCc3ccccc32)CC1)c1c[nH]c2c(Br)ccc(F)c12 [Compound 1007] |  | > 500
